The values that follow come from patent publication US11512042B2, “Enamine compounds for absorbance of electromagnetic energy” (Commonwealth Scientific and Industrial Research Organisation, priority 2015, dated 2022).

Common to all, as to format: physicochemical
The nature of series [1]: Photostability protocol: thin film irradiated with xenon arc lamp. The note with it: 1 hour xenon arc lamp; for Photostability: ratio of absorbance at λmax irradiated vs unirradiated, ^a = average of multiple measurements. The essentials:
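A 3% solution in EtOH/triglyceride/alkyl benzoate is dried on glass slides into a liquid film of 1.5 mg compound. Films are irradiated 1 h with a Pyrex-filtered 150 W xenon arc lamp (about 100 MED, below 30° C). Washings are read by UV; stability is absorbance at λmax relative to unirradiated film.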

Series [2] in a line: PMMA film in QUV Weatherometer. The following applies: type A bulbs, 70° C. 8 hours then dark humid 50° C. 4 h. The procedure:
In order to gauge longer term photostability, the PMMA film samples were evaluated in a QUV Weatherometer using type A bulbs with solar irradiance at 70° C. for 8 hours followed by heating in the dark under a humid atmosphere at 50° C. for 4 h. The film was then sandwiched between 2 glass slides to prevent deformation and irradiated. The samples were evaluated by a visual comparison and measurement of transmittance spectra. […] This clearly indicates the suitability of compounds of the first aspect to incorporation into polymeric matrices and films. The relevant transmission spectra are shown in FIG. 11 (142), FIG. 12 (143), FIG. 13 (164), FIG. 14 (213) and FIG. 15 (215) wherein in all of these figures the lower plateau line represents the result following radiation and the upper line prior to irradiation.

Series [3] is described as follows: UV absorbance spectrum in solution (λmax, λcrit, extinction coefficients). The note with it: for λcrit: critical wavelength; for E (1%, 1 cm): mass extinction coefficient; for ε: molar extinction coefficient, in M-1 cm-1 (unit assumed). The essentials:
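Spectra taken on 0.001% solutions in methanol, 10 mm path. Breakthrough is the wavelength where transmittance rises above 1%; steepness is the nm span over which transmittance goes from 1 to 80%.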

Series [4] can be described thus: % transmission spectrum of 0.1% solution (breakthrough, steepness). The note with it: for Steepness: distance in nm over which transmittance increases from 1 to 80%; for Breakthrough (1% T at 0.1%): value in nm where transmittance increases beyond 1%, 0.1% solution. The essentials:
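Transmission was recorded for 0.1% methanol solutions in a 2 mm cuvette. Breakthrough is the wavelength (nm) at which transmittance exceeds 1%; steepness is the nm span over which transmittance rises from 1 to 80%. Some values are averages of multiple measurements.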

Values joined by “and” are separate entries in the source; they are usually repeats but may differ in a detail not shown here. Identical values can stand only once.

As for `CCCCC(CC)COC(=O)c1ccc2c(c1)CCN2/C=C(\C(=O)C(F)(F)F)c1ccccc1` (centres unmarked) [Compound 215], the “Photostability (% remains)” value in series [1] is on record as 85%. In addition, in series [2], the “Longer term photostability in PMMA film” value is recorded as “little sign of decomposition after irradiation”. Besides, in series [3], the λmax was determined as 374 nm; the λcrit is listed as 391 nm; the “E (1%, 1 cm)” value turned out to be 1067; the ε is 50515.
For the compound `COC(=O)c1ccc2c(c1)CCN2C=C(C(=O)c1c(C)cc(C)cc1C)c1ccccc1` [Compound 282], in series [4], the Steepness was found to be 23 nm and the “Breakthrough (1% T at 0.1%)” value is listed as 402 nm. Moreover, in series [1], the Photostability was 89% and 91%. In series [3], the λmax was 368 nm; the λcrit amounted to 382 nm; the “E (1%, 1 cm)” value is 1427; the ε is 60650.
For the compound `COC(=O)c1ccc2c(c1)CCN2/C=C(/C(=O)C(C)(C)C)c1ccccc1` [Compound 283], in series [4], the Steepness was determined as 16 nm and the “Breakthrough (1% T at 0.1%)” value is listed as 401 nm. In addition, the Photostability in series [1] is 87% and 88%. Further, in series [3], the λmax is reported as 367 nm; the λcrit was determined as 384 nm; the “E (1%, 1 cm)” value is 1339; the ε is 48637.
For `COc1ccccc1C(=O)/C(=C/N(c1ccccc1)c1ccccc1)c1ccccc1` [Compound 285], in series [4], the Steepness worked out at 34 nm and the “Breakthrough (1% T at 0.1%)” value was found to be 398 nm. For the same compound, in series [1], the Photostability was found to be 76%. Also, in series [3], the λmax turned out to be 345 nm; the λcrit is 378 nm; the “E (1%, 1 cm)” value came to 666; the ε was found to be 27034.
Regarding `COC(=O)c1ccc2c(c1)CCN2/C=C(/C(=O)c1ccc(C(C)(C)C)cc1)c1ccccc1` [Compound 287], in series [4], the Steepness was 35 nm and the “Breakthrough (1% T at 0.1%)” value is given as 425 nm. In addition, the Photostability in series [1] turned out to be 76%. In addition, in series [3], the λmax is recorded as 373 nm; the λcrit worked out at 389 nm; the “E (1%, 1 cm)” value is on record as 1007; the ε was 44238.
On to `CCC(CC)(CC)OC(=O)/C(=C/N1CCc2cc(C(=O)OC)ccc21)c1ccccc1` [Compound 289], for which, in series [4], the Steepness is reported as 18 nm and the “Breakthrough (1% T at 0.1%)” value is 381 nm. The Photostability in series [1] amounted to 78%. Moreover, in series [3], the λmax was determined as 357 nm; the λcrit was determined as 370 nm; the “E (1%, 1 cm)” value is on record as 1405; the ε is on record as 59157.
With `CCN(CC)C(=O)C(=O)/C(=C/N1CCc2cc(C(=O)OC)ccc21)c1ccccc1` [Compound 290], in series [4], the Steepness came out at 22 nm and the “Breakthrough (1% T at 0.1%)” value stood at 412 nm. In addition, in series [1], the Photostability was 53%. In series [3], the λmax is reported as 370 nm; the λcrit is reported as 389 nm; the “E (1%, 1 cm)” value was 1260; the ε is on record as 51191.
As for `COC(=O)c1ccc2c(c1)CCN2C=C(C(=O)C(C)(C)C)c1ccc(C)cc1` [Compound 295], in series [4], the Steepness was 16 nm and the “Breakthrough (1% T at 0.1%)” value is reported as 402 nm. Besides, in series [1], the Photostability is on record as 68%. For the same compound, in series [3], the λmax was 368 nm; the λcrit came to 385 nm; the “E (1%, 1 cm)” value is on record as 1307; the ε came out at 49288.
On to `COC(=O)c1ccc2c(c1)CCN2C=C(C(=O)C(C)(C)C)c1ccc(C(C)(C)C)cc1` [Compound 296], for which, in series [4], the Steepness was 16 nm and the “Breakthrough (1% T at 0.1%)” value is reported as 401 nm. For the same compound, the Photostability in series [1] was found to be 73%. In addition, in series [3], the λmax was found to be 368 nm; the λcrit was determined as 384 nm; the “E (1%, 1 cm)” value is 1213; the ε is 50838.
For `CCCCC(CC)COC(=O)c1ccc2c(c1)CCN2C=C(C(=O)C(C)(C)C)c1ccccc1` (centres unmarked) [Compound 300], in series [4], the Steepness stood at 16 nm and the “Breakthrough (1% T at 0.1%)” value is on record as 400 nm. For the same compound, the Photostability in series [1] is 81% and 83%. Moreover, in series [3], the λmax is given as 367 nm; the λcrit was 384 nm; the “E (1%, 1 cm)” value is recorded as 1189; the ε is 54826.
As to `COC(=O)c1ccc2c(c1)CCN2/C=C(/C(=O)c1ccccc1O[Si](C)(C)C(C)(C)C)c1ccccc1` [Compound 302], in series [4], the Steepness is 26 nm and the “Breakthrough (1% T at 0.1%)” value is 01 nm. Besides, in series [1], the Photostability turned out to be 45%. For the same compound, in series [3], the λmax amounted to 369 nm; the λcrit amounted to 384 nm; the “E (1%, 1 cm)” value is given as 1089; the ε came out at 55852.
As for `CCCCC(CC)COC(=O)c1ccc2c(c1)CCN2C=C(C(=O)c1c(C)cc(C)cc1C)c1ccccc1` (centres unmarked) [Compound 303], in series [4], the Steepness stood at 24 nm and the “Breakthrough (1% T at 0.1%)” value was found to be 399 nm. Further, the Photostability in series [1] is 94% and 93%. In series [3], the λmax came to 369 nm; the λcrit is listed as 382 nm; the “E (1%, 1 cm)” value stood at 1164; the ε was determined as 60921.
As for `CC(C)(C)C(=O)/C(=C/N1CCc2cc(C(=O)OCCCOC(=O)c3ccc4c(c3)CCN4/C=C(/C(=O)C(C)(C)C)c3ccccc3)ccc21)c1ccccc1` [Compound 304], in series [4], the Steepness is given as 19 nm and the “Breakthrough (1% T at 0.1%)” value is 401 nm. Also, the Photostability in series [1] is 90% and 92%. Moreover, in series [3], the λmax amounted to 365 nm; the λcrit amounted to 384 nm; the “E (1%, 1 cm)” value came to 1023; the ε was 75535.
`COC(=O)c1ccc2c(c1)CCN2/C=C(/C(=O)C(=O)N1CCc2ccccc21)c1ccccc1` [Compound 305]: in series [4], the Steepness was determined as 23 nm and the “Breakthrough (1% T at 0.1%)” value was 417 nm. Moreover, the Photostability in series [1] is 80% and 75%. For the same compound, in series [3], the λmax is 375 nm; the λcrit amounted to 391 nm; the “E (1%, 1 cm)” value is 1078; the ε worked out at 48709.
Regarding `Cc1cc(C)c(C(=O)/C(=C\N2CCc3cc(C(=O)OCCCOC(=O)c4ccc5c(c4)CCN5/C=C(/C(=O)c4c(C)cc(C)cc4C)c4ccccc4)ccc32)c2ccccc2)c(C)c1` [Compound 307], in series [4], the Steepness came out at 22 nm and the “Breakthrough (1% T at 0.1%)” value is listed as 402 nm. Besides, the Photostability in series [1] was 98, 98%. In series [3], the λmax amounted to 370 nm; the λcrit is recorded as 384 nm; the “E (1%, 1 cm)” value is listed as 1251; the ε was 107885.
Take `CCCCC(CC)COC(=O)c1ccc2c(c1)CCN2/C=C(/C(=O)c1ccncc1)c1ccccc1` (centres unmarked) [Compound 308]: in series [4], the Steepness is 41 nm and the “Breakthrough (1% T at 0.1%)” value is 431 nm. Also, the Photostability in series [1] amounted to 79%. Moreover, in series [3], the λmax was found to be 374 nm; the λcrit turned out to be 391 nm; the “E (1%, 1 cm)” value came out at 796; the ε amounted to 38378.
`CCCCC(CC)COC(=O)c1ccc2c(c1)CCN2/C=C(/C(=O)C(C)(C)C)c1ccc(Br)cc1` (centres unmarked) [Compound 309]: in series [4], the Steepness came out at 19 nm and the “Breakthrough (1% T at 0.1%)” value is on record as 397 nm. The Photostability in series [1] turned out to be 80%. In series [3], the λmax amounted to 366 nm; the λcrit is 384 nm; the “E (1%, 1 cm)” value stood at 780; the ε came to 42050.
As to `CCCCC(CC)COC(=O)c1ccc2c(c1)CCN2/C=C(/C(=O)C(C)(C)C)c1ccc(C#N)cc1` (centres unmarked) [Compound 310], in series [4], the Steepness worked out at 22 nm and the “Breakthrough (1% T at 0.1%)” value is on record as 402 nm. Also, in series [1], the Photostability is 78% and 81%. In series [3], the λmax came to 368 nm; the λcrit is given as 385 nm; the “E (1%, 1 cm)” value is 1039; the ε was 50502.
